pIC50: −log10 of the molar value.

This experiment concerns the target T1, human DGAT1 enzyme (Homo sapiens, UniProt O75907).
T1 construct: made in house; host or cells: Sf9 insect cells (microsomal membranes)
T1 sequence (O75907 1-488): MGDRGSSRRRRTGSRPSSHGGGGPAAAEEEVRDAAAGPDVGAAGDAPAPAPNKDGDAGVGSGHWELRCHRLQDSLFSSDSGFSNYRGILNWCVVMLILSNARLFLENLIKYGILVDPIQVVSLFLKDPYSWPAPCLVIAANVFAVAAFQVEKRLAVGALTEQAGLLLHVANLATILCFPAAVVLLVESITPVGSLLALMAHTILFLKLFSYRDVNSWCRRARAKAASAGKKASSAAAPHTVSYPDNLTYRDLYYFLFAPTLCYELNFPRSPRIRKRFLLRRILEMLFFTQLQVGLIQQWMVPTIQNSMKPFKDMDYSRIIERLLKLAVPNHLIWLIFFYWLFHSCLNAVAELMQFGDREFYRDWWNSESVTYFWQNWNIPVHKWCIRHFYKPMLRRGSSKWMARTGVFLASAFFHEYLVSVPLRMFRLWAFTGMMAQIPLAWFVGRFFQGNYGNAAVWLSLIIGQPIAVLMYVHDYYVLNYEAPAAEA
The experiment can be described thus: in vitro DGAT1 inhibition assay (microsomes, [14C]-palmitoyl-CoA, SPA beads). The conditions noted are these: human DGAT1 expressed in Sf9 insect cells, microsomes; 2 hours at room temperature; read-out: IC50. Format: biochemical. The method, then: The in vitro assay to identify DGAT1 inhibitors uses human DGAT1 enzyme expressed in Sf9 insect cells prepared as microsomes. The reaction was initiated by the addition of the combined substrates 1,2-dioleoyl-sn-glycerol and [^14C]-palmitoyl-Co A and incubated with test compounds and microsomal membranes for 2 hours at room temperature. The assay was stopped by adding 0.5 mg wheat germ agglutinin beads in assay buffer with 1% Brij-35 and 1% 3-cholamidopropyldimethyl-ammonio-1-propane sulfonate. Plates were sealed with TopSeal and incubated for 18 hours to allow the radioactive triglyceride product to come into proximity with the bead. Plates were read on a TopCount instrument.
Percent inhibition was calculated as the percent of (test compound inhibition minus non-specific binding) relative to (total binding minus non-specific binding). IC50 values were determined by curve fitting the data to a Sigmoidal dose-response in GraphPad Prism utilizing the following equation:
Y=A+(B−A)/(1+10̂((Log IC50−X))),
where A and B are the bottom and top of the curve (highest and lowest inhibition), respectively, and X is the logarithm of concentration.
Take `CCOC(=O)c1ccccc1NC(=O)N1CCN(c2ccc(NC(=O)c3sc4ccc(-c5ccccc5)cc4c3C)cn2)CC1` [Example 50, ethyl 2-(4-(5-(3-methyl-5-phenylbenzo[b]thiophene-2-carboxamido)pyridin-2-yl)piperazine-1-carboxamido)benzoate]: the pIC50 (as a rule, −log10 of the IC50, conventionally taken in molar units) is 5.63. Regarding `CCOC(=O)c1ccccc1NC(=O)N1CCN(c2ccc(NC(=O)c3oc4ccc(-c5ccc(OC)cc5)cc4c3C)cn2)CC1` [Example 65, ethyl 2-(4-(5-(5-(4-methoxyphenyl)-3-methylbenzofuran-2-carboxamido)pyridin-2-yl)piperazine-1-carboxamido)benzoate], the pIC50 was 6.34.

On to `Cc1c(C(=O)Nc2ccc(N3CCC(OCc4cccc(C(=O)O)c4)CC3)nc2)oc2ccc(-c3ccccc3F)cc12` [Example 25, 3-((1-(5-(5-(2-fluorophenyl)-3-methylbenzofuran-2-carboxamido)pyridin-2-yl)piperidin-4-yloxy)methyl)benzoic acid], for which the negative logarithm of the IC50 (pIC50) is 7.03.

For the molecule `Cc1c(C(=O)Nc2ccc(N3CCN(C(=O)Nc4ccccc4F)CC3)nc2)sc2ccc(-c3ccc(F)cc3)cc12` [Example 55, N-(2-fluorophenyl)-4-(5-(5-(4-fluorophenyl)-3-methylbenzo[b]thiophene-2-carboxamido)pyridin-2-yl)piperazine-1-carboxamide], the pIC50 was 7.11. Take `Cc1c(C(=O)Nc2ccc(N3CCC(COc4cccc(C(=O)O)c4)CC3)nc2)oc2ccc(-c3ccccc3)cc12` [Example 18, 3-((1-(5-(3-methyl-5-phenylbenzofuran-2-carboxamido)pyridin-2-yl)piperidin-4-yl)methoxy)benzoic acid]: the pIC50 is 7.28. Then `COC(=O)c1cccc(COC2CCN(c3ccc(NC(=O)c4oc5ccc(-c6ccccc6OC)cc5c4C)cn3)CC2)c1` [Example 72, methyl 3-((1-(5-(5-(2-methoxyphenyl)-3-methylbenzofuran-2-carboxamido)pyridin-2-yl)piperidin-4-yloxy)methyl)benzoate], with 4.88; and `Cc1c(C(=O)Nc2ccc(N3CCN(C(=O)Cc4c(F)cccc4F)CC3)nc2)oc2ccccc12` [Example 4, N-(6-(4-(2-(2,6-difluorophenyl)acetyl)piperazin-1-yl)pyridin-3-yl)-3-methylbenzofuran-2-carboxamide], with 7.34; and `Cc1c(C(=O)Nc2ccc(N3CCN(C(=O)Nc4ccccc4C(=O)O)CC3)nc2)oc2ccc(-c3ccc(F)cc3)cc12` [Example 36, 2-(4-(5-(5-(4-fluorophenyl)-3-methylbenzofuran-2-carboxamido)pyridin-2-yl)piperazine-1-carboxamido)benzoic acid], with 7.05. The same measure for `Cc1c(C(=O)Nc2ccc(N3CCN(C(=O)C(O)C(F)(F)F)CC3)nc2)oc2ccccc12` (stereo not drawn) [Example 3, 3-methyl-N-(6-(4-(3,3,3-trifluoro-2-hydroxypropanoyl)piperazin-1-yl)pyridin-3-yl)benzofuran-2-carboxamide]: 6.23; for `Cc1c(C(=O)Nc2ccc(N3CCC(COc4cccc(C(=O)O)c4)CC3)nc2)oc2ccc(Oc3ccccc3)cc12` [Example 94, 3-((1-(5-(3-methyl-5-phenoxybenzofuran-2-carboxamido)pyridin-2-yl)piperidin-4-yl)methoxy)benzoic acid]: 7.15. As for `COC(=O)c1cccc(COC2CCN(c3ccc(NC(=O)c4oc5ccc(-c6ccc(F)cc6)cc5c4C)cn3)CC2)c1` [Example 35, methyl 3-((1-(5-(5-(4-fluorophenyl)-3-methylbenzofuran-2-carboxamido)pyridin-2-yl)piperidin-4-yloxy)methyl)benzoate], the pIC50 was 7.42. Consider `Cc1c(C(=O)Nc2ccc(N3CCC(OCc4cccc(C(=O)O)c4)CC3)nc2)sc2ccc(-c3ccccc3)cc12` [Example 51, 3-((1-(5-(3-methyl-5-phenylbenzo[b]thiophene-2-carboxamido)pyridin-2-yl)piperidin-4-yloxy)methyl)benzoic acid], for which the negative logarithm of the IC50 (pIC50) is 7.55.

These data come from patent US20120172369A1 (priority 2009, published 2012).
